Data: patent US7029680B1, “Delivery of immunogenic molecules vis HBsAg particles” (Yissum Research Development Company of the Hebrew …, priority 1998, dated 2006)

B1: IL-12 alone: cytokine IL-12 without HBsAg (control) (protein, UniProt P29459 23-219; P29460 23-328, looked up)
Interleukin-12 subunit alpha: RNLPVATPDPGMFPCLHHSQNLLRAVSNMLQKARQTLEFYPCTSEEIDHEDITKDKTSTVEACLPLELTKNESCLNSRETSFITNGSCLASRKTSFMMALCLSSIYEDLKMYQVEFKTMNAKLLMDPKRQIFLDQNMLAVIDELMQALNFNSETVPQKSSLEEPDFYKTKIKLCILLHAFRIRAVTIDRVMSYLNAS
Interleukin-12 subunit beta: IWELKKDVYVVELDWYPDAPGEMVVLTCDTPEEDGITWTLDQSSEVLGSGKTLTIQVKEFGDAGQYTCHKGGEVLSHSLLLLHKKEDGIWSTDILKDQKEPKNKTFLRCEAKNYSGRFTCWWLTTISTDLTFSVKSSRGSSDPQGVTCGAATLSAERVRGDNKEYEYSVECQEDSACPAAEESLPIEVMVDAVHKLKYENYTSSFFIRDIIKPDPPKNLQLKPLKNSRQVEVSWEYPDTWSTPHSYFSLTFCVQVQGKSKREKKDRVFTDKTSATVICRKNASISVRAQDRYYSSSWSEWASVPCS

What was measured:
OVA-specific cells (EG7) = assay: Anti-OVA CTL response, 51Cr release cytolytic assay after immunization; format: in vivo; settings: F1 (H-2d/b) mice; lysis of EG7 vs EL4; FIG. 4B
Description: (§1) OVA/HBsAg particles, prepared as described above, were isolated, washed, and adjusted to the appropriate concentration for immunization. The following compositions were injected into F1 (H-2d/b) mice, each in 50 μl PBS (phosphate buffered saline): (a) 1 μg HBsAg particles (without adjuvants); (b) 100 μg native OVA; and (c) 1 μg HBsAg/OVA, as described in Section A above.
(§2) For evaluation of the CTL response, spleen or lymph nodes cells, obtained from immunized mice seven days to five weeks post-vaccination, were specifically restimulated in vitro for five days with syngeneic, irradiated OVA- or HBsAg-peptide-pulsed tumor cells. (The latter cells had been incubated in vitro with the recombinant HBsAg particles for 2 hours at 37° C.) The cells were harvested and tested in a 4-hour ^51Cr release cytolytic assay against antigen-bearing and non-antigen-bearing syngeneic targets. Lysis of cells specific for the HBsAg S protein (P815/S), or for OVA (EG7), was compared to that for nonspecific cells (P815 or EL4, respectively). The EG7 cells are EL4 cells which have been stably transfected with an expression plasmid encoding OVA.

OVA = assay: Anti-OVA humoral (serum antibody) response after immunization; format: in vivo; settings: F1 (H-2d/b) mice, FIG. 4D
Description: as §1, §2

[1] = test system: EL4 cells which had been pulsed with HBsAg; assay: Anti-HBsAg CTL response in 'nonresponder' mice, 51Cr release assay; format: in vivo, 'nonresponder' mice (H-2^b C57BL/6); settings: nonresponder C57BL/6 mice; splenocytes restimulated with HBsAg-pulsed RBL5 cells; FIG. 6A-G
Description: To produce the data shown in FIG. 6, several cytokines were loaded into HBsAg particles, following a protocol such as outlined above for OVA, with incubation carried out at 45° C. It was estimated that approximately 10 ng of cytokine was incorporated per μg of HBsAg particles (about 1% incorporation) at this temperature. Groups of ‘nonresponder’ mice (H-2^b C57BL/6) were immunized with HBsAg particles, with and without incorporated cytokines, or with cytokine alone (FIG. 6G), in the amounts shown below: • A: 1 μg ‘naked’ HBsAg particles • B–F: 1 μg HBsAg/cytokine, where the cytokine was: • (b) IL-12, (c) IFN-γ, (d) IL-2, (e) IL-4, • (f) IL-1 β peptide • G: 1 μg IL-12 (control) • H: 1 μg HBsAg/IL-12
After 12 days, splenocytes from the immunized mice were restimulated in vitro for 5 days with HBsAg-pulsed, syngeneic irradiated RBL5 lymphoma cells. For control experiment H, the splenocytes were restimulated with non-pulsed, syngeneic RBL5 cells. The splenocytes (effector cells) were then cocultured with ^51Cr-labeled target cells, and the CTL response was measured by a standard ^51Cr release assay. The target cells were either non-pulsed EL4 cells (open circles in FIGS. 6A–G), or EL4 cells which had been pulsed with HBsAg (solid circles).

| Molecule | anti-OVA CTL response (OVA-specific cells (EG7)) | anti-OVA humoral response (OVA) | anti-HBsAg CTL response [1] |
| --- | --- | --- | --- |
| ovalbumin [OVA alone, native ovalbumin protein, model antigen] | no CTL response and none | elicited a humoral response |  |
| B1 |  |  | no CTL response |
